Experimental data taken from patent US4125607A, “Daunosaminyl anthracyclinones and their use” (Societa' Farmaceutici Italia S.p.A., priority 1975, dated 1978).
Values after ≈ are worked out from the molar mass of the structure shown. Where two headings read alike, the source gives them in different places.

Key:
L1210 leukemia = assay: Activity on L1210 leukemia in BDF1 mice (Table 4); assay type: in vivo
Description: |Activity on L1210 leukemia |BDF1 mice were injected ip with 10^5 ascites |cells on Day 0 and treated ip on Day 1.

HeLa cells = assay: Inhibition of colony forming ability of cultured HeLa cells in vitro; assay type: cell-based; settings: for IC50: Homo sapiens, read-out: ID50 (50% inhibiting dose)
Excerpt: Biological activity on cultured HeLa cells. Data
are expressed as 50% inhibiting dose (ng/ml) at
different times of exposure.

Sarcoma 180 ascites = assay: Antitumor activity in mice bearing Sarcoma 180 ascites, single ip treatment on day 1; assay type: in vivo; settings: for LTS (long term survivors) / T/C % (survival time as percentage of controls) / TOX (toxic deaths): single ip on day 1
Excerpt: Antitumor activity in mice bearing Sarcoma 180 ascites;
single intraperitoneal treatment on day 1. The results
are expressed as the time of survival of treated animals
as a percentage of the controls (T/C %), the number of
long term survivors (LTS) and toxic deaths (TOX).

L 1210 leukemia = assay: Activity on L 1210 leukemia in BDF1 mice (Table 3); assay type: in vivo
Excerpt: ^1 BDF1 mice received 10^5 ascites cells ip on Day 0 - Treatment

P 388 leukemia = assay: Activity on P 388 leukemia in BDF1 mice (Table 3); assay type: in vivo
Excerpt: ^2 BDF1 mice received 10^6 ascites cells ip on Day 0 - Treatment

Gross leukemia = assay: Activity on Gross leukemia in C3H/Hc mice (Table 3); assay type: in vivo
Excerpt: ^3 C3H/Hc mice received 2×10^6 leukemic cells iv on Day 0 -
Treatment iv on Days 1, 2, 3.

Cc1cc2c(cc1C)C(=O)c1c(O)c3c(c(O)c1C2=O)CC(O)(C(=O)CO)CC3OC1CC(N)C(O)C(C)O1 (stereo not shown) [2,3-Dimethyl-4-demethoxy-adriamycin, 4-demethoxy-2,3-dimethyladriamycin] was tested, and the T/C % (L1210 leukemia; L1210, 1.9 mg/kg ip on Day 1) was 152%, the T/C % (L1210 leukemia; L1210, 2.9 mg/kg ip on Day 1) was 152% and the LTS (L1210 leukemia; L1210, 4.4 mg/kg ip on Day 1) was 1/10. For the same compound, the T/C % (L1210 leukemia; L1210, 4.4 mg/kg ip on Day 1) was 170%.

CC1OC(OC2CC(O)(C(=O)CO)Cc3c(O)c4c(c(O)c32)C(=O)c2ccccc2C4=O)CC(N)C1O (stereo not shown) [4-demethoxyadriamycin] was tested, and the “Activity relative to adriamycin (inhibition of colony forming ability)” value (HeLa cells; HeLa cells in vitro, from Table 1) was “about one hundred times more active than adriamycin”, the IC50 (HeLa cells; HeLa cells, 2 hrs. exposure) was 1.5 ng/mL (≈ 0.00292 µM) and the IC50 (HeLa cells; HeLa cells, 8 hrs. exposure) was 0.34 ng/mL (≈ 0.000662 µM). For the same compound, the IC50 (HeLa cells; HeLa cells, 24 hrs. exposure) was 0.14 ng/mL (≈ 0.000273 µM), the “LTS (long term survivors)” value (Sarcoma 180 ascites; 0.25 mg/kg) was 7/10 and the “T/C % (survival time as percentage of controls)” value (Sarcoma 180 ascites; 0.25 mg/kg) was “above 583%”. The “LTS (long term survivors)” value (Sarcoma 180 ascites; 0.5 mg/kg) was 6/10, the “T/C % (survival time as percentage of controls)” value (Sarcoma 180 ascites; 0.5 mg/kg) was “above 583%” and the “T/C % (survival time as percentage of controls)” value (Sarcoma 180 ascites; 1.0 mg/kg) was 218%. The “TOX (toxic deaths)” value (Sarcoma 180 ascites; 1.0 mg/kg) was 6/9, the “Activity relative to adriamycin” value (Sarcoma 180 ascites; Sarcoma 180 ascites, from Table 2) was “at least ten times more active than adriamycin” and the T/C % (L 1210 leukemia; L 1210, 0.25 mg/kg ip on Day 1) was 155%. For the same compound, the T/C % (L 1210 leukemia; L 1210, 0.5 mg/kg ip on Day 1) was 166%, the T/C % (L 1210 leukemia; L 1210, 1 mg/kg ip on Day 1) was 133% and the Tox (L 1210 leukemia; L 1210, 1 mg/kg ip on Day 1) was 10/10. The T/C % (P 388 leukemia; P 388, 0.25 mg/kg ip on Day 1) was 168%, the T/C % (P 388 leukemia; P 388, 0.5 mg/kg ip on Day 1) was 195% and the T/C % (P 388 leukemia; P 388, 1 mg/kg ip on Day 1) was 209%. The Tox (P 388 leukemia; P 388, 1 mg/kg ip on Day 1) was 2/10, the T/C % (Gross leukemia; 0.35 mg/kg iv on Days 1, 2, 3) was 228% and the Tox (Gross leukemia; 0.35 mg/kg iv on Days 1, 2, 3) was 1/10. The T/C % (Gross leukemia; 0.45 mg/kg iv on Days 1, 2, 3) was 214%, the Tox (Gross leukemia; 0.45 mg/kg iv on Days 1, 2, 3) was 1/10 and the T/C % (Gross leukemia; 0.6 mg/kg iv on Days 1, 2, 3) was 157%. For the same compound, the Tox (Gross leukemia; 0.6 mg/kg iv on Days 1, 2, 3) was 8/10.

With COc1cccc2c1C(=O)c1c(O)c3c(c(O)c1C2=O)C[C@@](O)(C(=O)CO)C[C@@H]3O[C@H]1C[C@H](N)[C@H](O)[C@H](C)O1 [Adriamycin] the IC50 (HeLa cells; HeLa, 2 h) was 125 ng/mL (≈ 0.23 µM), the IC50 (HeLa cells; HeLa, 8 h) was 28 ng/mL (≈ 0.0515 µM) and the IC50 (HeLa cells; HeLa, 24 h) was 12.5 ng/mL (≈ 0.023 µM). The “LTS (long term survivors)” value (Sarcoma 180 ascites; 2.5 mg/kg) was 7/10, the “T/C % (survival time as percentage of controls)” value (Sarcoma 180 ascites; 2.5 mg/kg) was “above 583%” and the “LTS (long term survivors)” value (Sarcoma 180 ascites; 5.0 mg/kg) was 2/10. The “T/C % (survival time as percentage of controls)” value (Sarcoma 180 ascites; 5.0 mg/kg) was 211%, the “TOX (toxic deaths)” value (Sarcoma 180 ascites; 5.0 mg/kg) was 3/9 and the “T/C % (survival time as percentage of controls)” value (Sarcoma 180 ascites; 10.0 mg/kg) was 163%. For the same compound, the “TOX (toxic deaths)” value (Sarcoma 180 ascites; 10.0 mg/kg) was 4/10, the T/C % (L 1210 leukemia; L 1210, 2.5 mg/kg ip on Day 1) was 155% and the T/C % (L 1210 leukemia; L 1210, 5 mg/kg ip on Day 1) was 166%. The Tox (L 1210 leukemia; L 1210, 5 mg/kg ip on Day 1) was 1/10, the T/C % (L 1210 leukemia; L1210, 10 mg/kg ip on Day 1) was 155% and the Tox (L 1210 leukemia; L1210, 10 mg/kg ip on Day 1) was 4/10. The T/C % (P 388 leukemia; P 388, 2.5 mg/kg ip on Day 1) was 173%, the T/C % (P 388 leukemia; P 388, 5 mg/kg ip on Day 1) was 218% and the T/C % (P 388 leukemia; P 388, 10 mg/kg ip on Day 1) was 230%. For the same compound, the Tox (P 388 leukemia; P 388, 10 mg/kg ip on Day 1) was 1/10, the T/C % (Gross leukemia; 3.5 mg/kg iv on Days 1, 2, 3) was 164% and the T/C % (Gross leukemia; 4.4 mg/kg iv on Days 1, 2, 3) was 186%. The T/C % (Gross leukemia; 6.0 mg/kg iv on Days 1, 2, 3) was 214%, the Tox (Gross leukemia; 6.0 mg/kg iv on Days 1, 2, 3) was 3/10 and the T/C % (L1210 leukemia; L1210, 2.9 mg/kg ip on Day 1) was 141%. The LTS (L1210 leukemia; L1210, 4.4 mg/kg ip on Day 1) was 1/10, the T/C % (L1210 leukemia; L1210, 4.4 mg/kg ip on Day 1) was 152% and the T/C % (L1210 leukemia; L1210, 6.6 mg/kg ip on Day 1) was 158%. For the same compound, the LTS (L1210 leukemia; L1210, 10 mg/kg ip on Day 1) was 1/10 and the T/C % (L1210 leukemia; L1210, 10 mg/kg ip on Day 1) was 164%.
